In one assay the target is T1, CDK1/Cyclin B (Homo sapiens, UniProt P06493).
T1 construct: purchased Invitrogen PR4768C
Kind of assay: Enzymatic assay for CDK1 (FRET based LANCE Ultra kinase assay). The format is biochemical. An outline of the steps: (§1)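 LANCE Ultra TR-FRET: ULight-MBP peptide (68 nM) with ATP at Km, […], 60 min at 23° C. EDTA plus Eu-anti-phospho-MBP added, another 60 min, then 665/615 nm emission read. Compounds tested as 8-dose 4-fold DMSO dilutions.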

The next assay deals with A2780. Kind of assay: Cellular A2780 viability assay (CellTiter-Glo, 72 hours). The format is cell-based. The settings on record: Homo sapiens. An excerpt: Human T-cell acute lymphoblastic leukemia cell line, MOLT-4 (ATCC, Cat #CRL-1582), Human multiple myeloma cell line, RPMI-8226 (Invitrogen, Cat #22400-089) and MM.1S (ATCC, Cat #CRL-2974), NSCLC (Non-small cell lung cancer) cell line H460 (ATCC, Cat #HTB-177), Human colon colorectal carcinoma cell line HCT116 (ATCC, Cat #CCL-247), Human acute monocytic leukemia cell line MV4-11 (ATCC, Cat #CRL-9591), OVCAR-3 (ATCC, Cat #HTB-161) and A2780 (ECACC, Cat #93112519) were obtained from ATCC. Cells were grown in RPMI-1640 media (Invitrogen, Cat #22400-089) supplemented with 10% FBS (Invitrogen, Cat #10099141) and 1% penicillin/streptomycin (Invitrogen, Cat #15070063) and cultured at 37° C., 5% CO2 in a humidified chamber. All cell lines were routinely tested for mycoplasma.
The effect of the CDK7 inhibitor to inhibit the growth of target cancer cells was evaluated through the 72 hours time period of viability assay. Briefly, the candidate cell line ware plated in 96 well plate at the following density of cells respectively. 1×10^4 cells/well for MOLT-4, RPMI-8226, MV4-11 and MM.1S, 5×10^3 for H460, HCT116 and OVCAR-3 and IX 10^3 for A2780. After 24 hours, the cells were treated with various concentrations of the compound (ranging from 0.0015 uM to 10 uM). DMSO solvent without compound served as a control and final DMSO concentration less than 0.1%. After 72 hours of incubation at 37° C., 5% CO2 incubator, cells were analyzed for the viability using the CellTiter-Glo Luminescent Cell Viability Assay (Promega, Cat #G7570). All viability assays were performed in duplicate and Luminescence was read using an Envision (Perkin Elmer, USA). Data was analyzed using XLfit software.
In general terms: In ATP-based viability assays light output follows the ATP content of the culture.

The target of the next assay is T2, CDK7/Cyclin H/MNAT1 (Homo sapiens, UniProt P50613).
T2 construct: purchased Invitrogen PR6749B
T2 sequence (P50613 whole entry): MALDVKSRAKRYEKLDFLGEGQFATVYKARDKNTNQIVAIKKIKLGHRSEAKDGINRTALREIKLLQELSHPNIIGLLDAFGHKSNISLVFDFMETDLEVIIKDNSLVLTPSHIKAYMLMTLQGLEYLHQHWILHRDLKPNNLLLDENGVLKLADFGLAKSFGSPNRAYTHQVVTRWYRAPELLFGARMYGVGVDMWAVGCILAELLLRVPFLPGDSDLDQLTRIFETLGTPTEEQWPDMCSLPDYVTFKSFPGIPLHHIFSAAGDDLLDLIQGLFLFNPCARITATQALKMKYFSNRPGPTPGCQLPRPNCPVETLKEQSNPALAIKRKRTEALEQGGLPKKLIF
T2 sequence (P51946 whole entry partner): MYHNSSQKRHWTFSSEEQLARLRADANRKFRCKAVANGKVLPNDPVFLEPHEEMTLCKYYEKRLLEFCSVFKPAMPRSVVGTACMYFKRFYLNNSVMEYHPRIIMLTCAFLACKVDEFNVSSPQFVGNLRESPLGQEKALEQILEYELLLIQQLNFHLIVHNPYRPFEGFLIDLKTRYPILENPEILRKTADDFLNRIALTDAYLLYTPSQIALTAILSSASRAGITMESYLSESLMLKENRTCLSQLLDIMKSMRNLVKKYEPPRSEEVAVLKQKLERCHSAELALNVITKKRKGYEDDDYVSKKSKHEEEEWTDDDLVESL
T2 sequence (P51948 whole entry partner): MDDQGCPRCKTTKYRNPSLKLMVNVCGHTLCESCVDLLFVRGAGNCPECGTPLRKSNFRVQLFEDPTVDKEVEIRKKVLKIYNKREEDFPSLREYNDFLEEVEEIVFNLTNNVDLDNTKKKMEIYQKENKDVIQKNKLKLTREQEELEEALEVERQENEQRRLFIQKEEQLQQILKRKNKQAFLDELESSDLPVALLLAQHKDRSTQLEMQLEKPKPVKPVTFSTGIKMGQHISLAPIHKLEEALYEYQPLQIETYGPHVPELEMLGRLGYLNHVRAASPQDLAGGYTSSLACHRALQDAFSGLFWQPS
Kind of assay: Enzymatic assay for CDK7 (FRET based LANCE Ultra kinase assay). The format is biochemical. The essentials: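 LANCE Ultra TR-FRET kinase assay using a ULight-labeled peptide substrate and a Eu-labeled anti-phospho antibody, with ATP at its Km. Purified CDK/cyclin complex was added to compound after brief centrifugation.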
(Time-resolved FRET reads energy transfer from a long-lived donor to a nearby acceptor.)

For another assay, the system named is H460. Kind of assay: Cellular H460 viability assay (CellTiter-Glo, 72 hours). The format is cell-based. As to conditions: Homo sapiens, NCI-H460. The essentials: (§2)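 72 h treatment, 37 °C, 5% CO2; DMSO ctrl, final <0.1%; CellTiter-Glo luminescence; n=2.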
For the next assay, the system named is MV4-11. Kind of assay: Cellular MV4-11 viability assay (CellTiter-Glo, 72 hours). The format is cell-based. The settings on record: Homo sapiens. The essentials: as §2
The target of another assay is T3, CDK2/Cyclin A (Homo sapiens, UniProt P24941).
T3 construct: purchased Invitrogen PV6290
Kind of assay: Enzymatic assay for CDK2 (FRET based LANCE Ultra kinase assay). The format is biochemical. The essentials: as §1

A further assay concerns the target T4, CDK5/p25 (Homo sapiens, UniProt Q00535).
T4 construct: purchased Invitrogen PR8543B
Nature of the assay: Enzymatic assay for CDK5 (FRET based LANCE Ultra kinase assay). The format is biochemical. The essentials:
as §1

[1] abbreviates: read-out: CDK1 enzymatic activity (IC50 range).
Where [2] appears, read: read-out: CDK7 enzymatic activity (IC50 range).
The mark [3] stands for this setting: read-out: CDK2 enzymatic activity (IC50 range).
[4] abbreviates: read-out: CDK5 enzymatic activity (IC50 range).
[5] abbreviates: read-out: CDK1 enzymatic activity (IC50 activity range).
The mark [6] stands for this setting: read-out: CDK7 enzymatic activity (IC50 activity range).
The mark [7] stands for this setting: read-out: CDK2 enzymatic activity (IC50 activity range).
The mark [8] stands for this setting: read-out: CDK5 enzymatic activity (IC50 activity range).

The values below come from patent publication US11945822B2, “Pyrazolo-triazine and/or pyrazolo-pxrimidine derivatives as selective inhibitor of cyclin dependent kinase” (QURIENT CO., LTD., priority 2018, dated 2024).

Like-named read-outs stand apart in the source and are kept apart here.

T1 sequence (P06493 whole entry): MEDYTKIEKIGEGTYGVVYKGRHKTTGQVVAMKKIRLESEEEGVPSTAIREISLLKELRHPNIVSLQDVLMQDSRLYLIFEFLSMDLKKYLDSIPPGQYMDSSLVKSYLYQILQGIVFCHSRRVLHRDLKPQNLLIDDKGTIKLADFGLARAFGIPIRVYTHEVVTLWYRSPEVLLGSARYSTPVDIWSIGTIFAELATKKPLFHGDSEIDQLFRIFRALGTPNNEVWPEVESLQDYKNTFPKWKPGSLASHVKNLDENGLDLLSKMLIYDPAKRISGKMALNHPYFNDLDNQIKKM
T1 sequence (P14635 whole entry partner): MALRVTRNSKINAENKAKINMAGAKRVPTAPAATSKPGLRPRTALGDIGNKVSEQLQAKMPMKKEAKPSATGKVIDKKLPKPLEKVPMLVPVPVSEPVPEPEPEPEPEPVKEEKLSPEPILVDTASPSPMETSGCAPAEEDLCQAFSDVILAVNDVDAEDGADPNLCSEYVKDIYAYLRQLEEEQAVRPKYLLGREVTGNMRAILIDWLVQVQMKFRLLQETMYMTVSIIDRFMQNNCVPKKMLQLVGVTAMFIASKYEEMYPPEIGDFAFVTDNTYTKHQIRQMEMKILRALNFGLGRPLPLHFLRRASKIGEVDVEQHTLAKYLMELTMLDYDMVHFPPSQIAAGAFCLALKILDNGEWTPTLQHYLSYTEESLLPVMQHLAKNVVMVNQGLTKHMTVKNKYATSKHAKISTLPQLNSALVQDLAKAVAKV
T4 sequence (Q00535 whole entry): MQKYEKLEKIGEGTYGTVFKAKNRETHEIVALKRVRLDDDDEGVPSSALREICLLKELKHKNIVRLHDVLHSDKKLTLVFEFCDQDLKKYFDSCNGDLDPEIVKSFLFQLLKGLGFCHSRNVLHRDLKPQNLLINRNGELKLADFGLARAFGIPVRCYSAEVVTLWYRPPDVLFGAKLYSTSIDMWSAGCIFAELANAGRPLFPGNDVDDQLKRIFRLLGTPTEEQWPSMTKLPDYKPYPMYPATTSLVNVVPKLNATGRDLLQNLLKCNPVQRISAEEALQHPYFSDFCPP
T4 sequence (Q15078 99-307 partner limits assumed): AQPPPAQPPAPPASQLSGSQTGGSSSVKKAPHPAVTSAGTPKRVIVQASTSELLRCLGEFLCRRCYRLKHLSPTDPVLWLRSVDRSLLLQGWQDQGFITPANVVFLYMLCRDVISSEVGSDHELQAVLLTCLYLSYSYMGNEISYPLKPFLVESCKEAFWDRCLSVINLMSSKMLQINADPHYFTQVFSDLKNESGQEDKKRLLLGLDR

As usually defined, the IC50 is the concentration at which inhibition is half-maximal. Regarding `CC(C)c1cnn2c(NCc3c(Cl)cccc3-c3cc(C(C)(C)O)n(C)n3)nc(N3CCC(N)CC3)nc12` [Compound 244], the IC50 at CDK1/Cyclin B (setting [1]) is more than 1 µM; in the assay with A2780 it was not above 1 µM; on CDK7/Cyclin H/MNAT1 (setting [2]), less than 0.1 µM; in the assay on H460 it was less than 1 µM; in the assay on MV4-11, less than 1 µM; at CDK2/Cyclin A (setting [3]), more than 1 µM. Besides, the IC50 at CDK5/p25 (setting [4]) was more than 1 µM. The “CDK1/CDK7: Selectivity of CDK7 inhibition over CDK1 inhibition” value on CDK7/Cyclin H/MNAT1 (CDK7 over CDK1) is “A (A=greater than 200 fold)”. The “CDK2/CDK7: Selectivity of CDK7 inhibition over CDK2 inhibition” value at CDK7/Cyclin H/MNAT1 (CDK7 over CDK2) is reported as “A (A=greater than 200 fold)”. In addition, the “CDK5/CDK7: Selectivity of CDK7 inhibition over CDK5 inhibition” value at CDK7/Cyclin H/MNAT1 (CDK7 over CDK5) is “A (A=greater than 200 fold)”.

For `CC(C)c1cnn2c(NCc3c(Cl)cccc3-c3ccc4ccccc4n3)nc(N3CCCC[C@H]3CCO)nc12` [Compound 262], the IC50 at CDK1/Cyclin B (setting [5]) is more than 1 µM; in the assay with A2780, more than 10 µM; on CDK7/Cyclin H/MNAT1 (setting [6]), 0.1 to 1 µM; with H460 it was more than 10 µM; in the assay with MV4-11, more than 10 µM; on CDK2/Cyclin A (setting [7]), more than 1 µM. Further, the IC50 at CDK5/p25 (setting [8]) was more than 1 µM. Moreover, at CDK7/Cyclin H/MNAT1 (CDK1/CDK7), the “CDK1/CDK7: Selectivity of CDK7 inhibition over CDK1 inhibition” value is recorded as “B (B=less than 200 fold, but greater than 20 fold)”. The “CDK2/CDK7: Selectivity of CDK7 inhibition over CDK2 inhibition” value at CDK7/Cyclin H/MNAT1 (CDK2/CDK7) was “B (B=less than 200 fold, but greater than 20 fold)”. Besides, the “CDK5/CDK7: Selectivity of CDK7 inhibition over CDK5 inhibition” value on CDK7/Cyclin H/MNAT1 (CDK5/CDK7) is on record as “B (B=less than 200 fold, but greater than 20 fold)”.

As for `CC(C)c1cnn2c(NCc3c(Cl)cccc3-c3ccc4ccccc4n3)nc(N3CCCC[C@H]3CO)nc12` [Compound 264], the half-maximal inhibitory concentration (IC50) at CDK1/Cyclin B (setting [5]) is more than 1 µM; in the assay on A2780 it was more than 10 µM; at CDK7/Cyclin H/MNAT1 (setting [6]), 0.1 to 1 µM; in the assay with H460, more than 10 µM; with MV4-11, more than 10 µM; on CDK2/Cyclin A (setting [7]) it was more than 1 µM. The 50% inhibitory concentration (IC50) on CDK5/p25 (setting [8]) is more than 1 µM. For the same compound, the “CDK1/CDK7: Selectivity of CDK7 inhibition over CDK1 inhibition” value on CDK7/Cyclin H/MNAT1 (CDK1/CDK7) is listed as “B (B=less than 200 fold, but greater than 20 fold)”. Also, at CDK7/Cyclin H/MNAT1 (CDK2/CDK7), the “CDK2/CDK7: Selectivity of CDK7 inhibition over CDK2 inhibition” value is recorded as “B (B=less than 200 fold, but greater than 20 fold)”. Besides, at CDK7/Cyclin H/MNAT1 (CDK5/CDK7), the “CDK5/CDK7: Selectivity of CDK7 inhibition over CDK5 inhibition” value is listed as “B (B=less than 200 fold, but greater than 20 fold)”.

In the case of `CC(C)c1cnn2c(NCc3ccccc3-c3ccc4ccccc4n3)nc(OC3CCC(O)CC3)nc12` (stereo not drawn) [Compound 269], the 50% inhibitory concentration (IC50) at CDK1/Cyclin B (setting [5]) was more than 1 µM; in the assay with A2780, not above 1 µM; on CDK7/Cyclin H/MNAT1 (setting [6]), less than 0.1 µM; in the assay with H460, less than 1 µM; in the assay on MV4-11, 1 to 10 µM; at CDK2/Cyclin A (setting [7]) it was more than 1 µM. Also, at CDK5/p25 (setting [8]), the IC50 is more than 1 µM. Further, the “CDK1/CDK7: Selectivity of CDK7 inhibition over CDK1 inhibition” value at CDK7/Cyclin H/MNAT1 (CDK1/CDK7) is “A (A=greater than 200 fold)”. Moreover, on CDK7/Cyclin H/MNAT1 (CDK2/CDK7), the “CDK2/CDK7: Selectivity of CDK7 inhibition over CDK2 inhibition” value was “A (A=greater than 200 fold)”. Also, the “CDK5/CDK7: Selectivity of CDK7 inhibition over CDK5 inhibition” value on CDK7/Cyclin H/MNAT1 (CDK5/CDK7) is recorded as “A (A=greater than 200 fold)”.

Regarding `CC(C)c1cnn2c(NCc3ccccc3-c3ccc4ccccc4n3)nc(NC3CCC(O)CC3)nc12` (stereo not drawn) [Compound 270], the IC50 at CDK1/Cyclin B (setting [5]) is more than 1 µM; with A2780, 1 to 10 µM; at CDK7/Cyclin H/MNAT1 (setting [6]) it was less than 0.1 µM; in the assay with H460 it was 1 to 10 µM; in the assay with MV4-11, 1 to 10 µM; on CDK2/Cyclin A (setting [7]), more than 1 µM. Besides, the half-maximal inhibitory concentration (IC50) at CDK5/p25 (setting [8]) was more than 1 µM. The “CDK1/CDK7: Selectivity of CDK7 inhibition over CDK1 inhibition” value on CDK7/Cyclin H/MNAT1 (CDK1/CDK7) was “A (A=greater than 200 fold)”. Besides, the “CDK2/CDK7: Selectivity of CDK7 inhibition over CDK2 inhibition” value at CDK7/Cyclin H/MNAT1 (CDK2/CDK7) is reported as “A (A=greater than 200 fold)”. Also, the “CDK5/CDK7: Selectivity of CDK7 inhibition over CDK5 inhibition” value on CDK7/Cyclin H/MNAT1 (CDK5/CDK7) is given as “A (A=greater than 200 fold)”.

Turning to `CC(C)c1cnn2c(NCc3c(Cl)cccc3C#N)nc(N3CCC(N)CC3)nc12` [Compound 242], the IC50 at CDK1/Cyclin B (setting [1]) is more than 1 µM; with A2780 it was not above 1 µM; at CDK7/Cyclin H/MNAT1 (setting [2]), less than 0.1 µM; in the assay on H460, less than 1 µM; in the assay with MV4-11, less than 1 µM; on CDK2/Cyclin A (setting [3]), 0.1 to 1 µM. The IC50 at CDK5/p25 (setting [4]) lay within 0.1 to 1 µM. The “CDK1/CDK7: Selectivity of CDK7 inhibition over CDK1 inhibition” value on CDK7/Cyclin H/MNAT1 (CDK7 over CDK1) is “A (A=greater than 200 fold)”. The “CDK2/CDK7: Selectivity of CDK7 inhibition over CDK2 inhibition” value on CDK7/Cyclin H/MNAT1 (CDK7 over CDK2) is “B (B=less than 200 fold, but greater than 20 fold)”. The “CDK5/CDK7: Selectivity of CDK7 inhibition over CDK5 inhibition” value at CDK7/Cyclin H/MNAT1 (CDK7 over CDK5) is “B (B=less than 200 fold, but greater than 20 fold)”.
